Laboratory results taken from patent publication US20190185865A1, “USE OF PROKARYOTIC TRANSCRIPTIONAL ACTIVATORS AS METABOLITE BIOSENSORS IN EUKARYOTIC CELLS” (Danmarks Tekniske Universitet, priority 2016, published 2019).

Target: T1, BenM (Acinetobacter baylyi, UniProt O68014)
T1 construct: expressed in transfected cells; host or cells: Saccharomyces cerevisiae CEN.PK113-5A, chromosomal integration; promoters TDH3p, TEF1p, RNR2p or REV1p
Assay: CCM-induced GFP expression in yeast strains combining BenM expression cassettes and CYC1p reporter promoter variants (flow cytometry)
Format: cell-based, Saccharomyces cerevisiae
Conditions: for FC (+/−CCM): 1.4 mM CCM, 24 h
Text: Strains, chemicals and media. Saccharomyces cerevisiae CEN.PK102-5B (MATa ura3-52 his3Δ1 leu2-3/112 MAL2-8^c SUC2), CEN.PK113-5A (MATa, trp1 his3Δ1 leu2-3/112 MAL2-8^c SUC2) and CEN.PK113-7D (wild type, MATa MAL2-8^c SUC2) strains were obtained from Peter Kotter (Johann Wolfgang Goethe-University Frankfurt, Germany). In principal any other yeast strains may be used, such as one obtained from public repository EuroScarf. EasyClone plasmids used in this work are described in Jensen, N. B. et al. EasyClone: method for iterative chromosomal integration of multiple genes in Saccharomyces cerevisiae. FEMS Yeast Res. 14, 238-48 (2014). Escherichia coli strain DH5a was used as a host for cloning and plasmid propagation. The chemicals and Pfu TURBO DNA polymerase were commercially obtained (Sigma-Aldrich and Agilent Technologies Inc., respectively). All acids used were >97% in purity. S. cerevisiae cells were grown at 30° C. in synthetic complete medium as well as drop-out media and agar plates were prepared using pre-mixed drop-out powders (Sigma-Aldrich). Mineral medium was freshly prepared as described previously. For all media containing diacids, 1.4 mM of the individual diacids were dissolved in mineral medium and pH adjusted to 4.5 before sterile filtration. For CCM several dilutions were made to examine the performance of the CCM biosensor. For naringenin, mineral medium was supplemented with 0, 0.05, 0.10 or 0.20 mM naringenin, dissolved in ethanol, the final ethanol concentration for each medium was 2% (v/v), and the final pH of the medium was adjusted to 6.0. E. coli cells were grown at 37° C. in Luria-Bertani (LB) medium supplemented with 100 μg/mL ampicillin.
Events were analyzed using FlowJo software (TreeStar Inc.).

[1] = strain MeLS0162, RNR2p-BenM + 249bp_CYC1p:GFP
[2] = strain MeLS0163, RNR2p-BenM + 209bp_CYC1p:GFP
[3] = strain MeLS0164, TDH3p-BenM + 491bp_CYC1p:GFP
[4] = strain MeLS0165, TDH3p-BenM + 272bp_CYC1p:GFP
[5] = strain MeLS0166, TDH3p-BenM + 249bp_CYC1p:GFP
[6] = strain MeLS0167, TDH3p-BenM + 209bp_CYC1p:GFP
[7] = strain MeLS0168, TEF1p-BenM + 491bp_CYC1p_BenO_T1:GFP
[8] = strain MeLS0169, TEF1p-BenM + 249bp_CYC1p_BenO_T1:GFP
[9] = strain MeLS0170, RNR2p-BenM + 491bp_CYC1p_BenO_T1:GFP
[10] = strain MeLS0171, RNR2p-BenM + 249bp_CYC1p_BenO_T1:GFP
[11] = strain MeLS0172, TDH3p-BenM + 491bp_CYC1p_BenO_T1:GFP
[12] = strain MeLS0173, TDH3p-BenM + 249bp_CYC1p_BenO_T1:GFP
[13] = strain MeLS0182, TEF1p-BenM + 272bp_CYC1p_BenO_T2:GFP
[14] = strain MeLS0183, TEF1p-BenM + 272bp_CYC1p_BenO_T1/T2:GFP
[15] = strain MeLS0184, TEF1p-BenM + 249bp_CYC1p_BenO_T2:GFP
[16] = strain MeLS0185, TEF1p-BenM + 249bp_CYC1p_BenO_T1/T2:GFP
[17] = strain MeLS0186, REV1p-BenM + 272bp_CYC1p_BenO_T2:GFP
[18] = strain MeLS0187, REV1p-BenM + 272bp_CYC1p_BenO_T1/T2:GFP
[19] = strain MeLS0188, REV1p-BenM + 249bp_CYC1p_BenO_T2:GFP
[20] = strain MeLS0189, REV1p-BenM + 249bp_CYC1p_BenO_T1/T2:GFP
[21] = strain MeLS0190, TDH3p-BenM + 272bp_CYC1p_BenO_T2:GFP
[22] = strain MeLS0191, TDH3p-BenM + 272bp_CYC1p_BenO_T1/T2:GFP
[23] = strain MeLS0192, TDH3p-BenM + 249bp_CYC1p_BenO_T2:GFP
[24] = strain MeLS0193, TDH3p-BenM + 249bp_CYC1p_BenO_T1/T2:GFP
[25] = strain MeLS0195, RNR2p-BenM + 272bp_CYC1p_BenO_T1/T2:GFP
[26] = strain MeLS0196, RNR2p-BenM + 249bp_CYC1p_BenO_T2:GFP
[27] = strain MeLS0197, RNR2p-BenM + 249bp_CYC1p_BenO_T1/T2:GFP
[28] = strain MeLS0263, TDH3p-BenM + 491bp_CYC1p_BenO_T2:GFP
[29] = strain MeLS0264, TDH3p-BenM + 209bp_CYC1p_BenO_T2:GFP
[30] = strain MeLS0265, RNR2p-BenM + 491bp_CYC1p_BenO_T2:GFP
[31] = strain MeLS0266, RNR2p-BenM + 209bp_CYC1p_BenO_T2:GFP
[32] = strain MeLS0267, TDH3p-BenM + 491bp_CYC1p_BenO_T1/T2:GFP
[33] = strain MeLS0268, TDH3p-BenM + 209bp_CYC1p_BenO_T1/T2:GFP
[34] = strain MeLS0269, RNR2p-BenM + 491bp_CYC1p_BenO_T1/T2:GFP
[35] = strain MelS0194, RNR2p-BenM + 272bp_CYC1p_BenO_T2:GFP

T1 sequence (O68014 whole entry): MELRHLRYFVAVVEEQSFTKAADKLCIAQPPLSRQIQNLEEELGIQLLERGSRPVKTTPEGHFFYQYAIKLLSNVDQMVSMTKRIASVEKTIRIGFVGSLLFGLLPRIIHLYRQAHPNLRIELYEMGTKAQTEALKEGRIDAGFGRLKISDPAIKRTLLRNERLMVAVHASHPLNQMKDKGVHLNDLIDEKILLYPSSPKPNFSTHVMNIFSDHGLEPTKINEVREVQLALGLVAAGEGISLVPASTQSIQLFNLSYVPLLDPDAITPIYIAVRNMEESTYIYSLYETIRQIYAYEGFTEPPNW

SMILES: O=C(O)/C=C\C=C/C(=O)O [CCM, cis, cis-muconic acid]
- Mean fluorescense intensities of GFP (24 h), CCM (1.4 mM) [1]: 164
- FC (+/−CCM) [1]: 1.121
- Mean fluorescense intensities of GFP (24 h), CCM (1.4 mM) [2]: 164
- FC (+/−CCM) [2]: 1.121
- Mean fluorescense intensities of GFP (24 h), CCM (1.4 mM) [3]: 4509
- FC (+/−CCM) [3]: 1.126
- Mean fluorescense intensities of GFP (24 h), CCM (1.4 mM) [4]: 216
- FC (+/−CCM) [4]: 1.157
- Mean fluorescense intensities of GFP (24 h), CCM (1.4 mM) [5]: 205
- FC (+/−CCM) [5]: 1.131
- Mean fluorescense intensities of GFP (24 h), CCM (1.4 mM) [6]: 194
- FC (+/−CCM) [6]: 1.09
- Mean fluorescense intensities of GFP (24 h), CCM (1.4 mM) [7]: 20250
- FC (+/−CCM) [7]: 1.312
- Mean fluorescense intensities of GFP (24 h), CCM (1.4 mM) [8]: 2913
- FC (+/−CCM) [8]: 4.337
- Mean fluorescense intensities of GFP (24 h), CCM (1.4 mM) [9]: 6114
- FC (+/−CCM) [9]: 1.089
- Mean fluorescense intensities of GFP (24 h), CCM (1.4 mM) [10]: 290
- FC (+/−CCM) [10]: 1.549
- Mean fluorescense intensities of GFP (24 h), CCM (1.4 mM) [11]: 10605
- FC (+/−CCM) [11]: 1.538
- Mean fluorescense intensities of GFP (24 h), CCM (1.4 mM) [12]: 3554
- FC (+/−CCM) [12]: 4.707
- Mean fluorescense intensities of GFP (24 h), CCM (1.4 mM) [13]: 211
- FC (+/−CCM) [13]: 1.155
- Mean fluorescense intensities of GFP (24 h), CCM (1.4 mM) [14]: 511
- FC (+/−CCM) [14]: 1.969
- Mean fluorescense intensities of GFP (24 h), CCM (1.4 mM) [15]: 475
- FC (+/−CCM) [15]: 1.653
- Mean fluorescense intensities of GFP (24 h), CCM (1.4 mM) [16]: 9992
- FC (+/−CCM) [16]: 3.797
- Mean fluorescense intensities of GFP (24 h), CCM (1.4 mM) [17]: 197
- FC (+/−CCM) [17]: 1.201
- Mean fluorescense intensities of GFP (24 h), CCM (1.4 mM) [18]: 370
- FC (+/−CCM) [18]: 1.789
- Mean fluorescense intensities of GFP (24 h), CCM (1.4 mM) [19]: 194
- FC (+/−CCM) [19]: 1.215
- Mean fluorescense intensities of GFP (24 h), CCM (1.4 mM) [20]: 181
- FC (+/−CCM) [20]: 1.22
- Mean fluorescense intensities of GFP (24 h), CCM (1.4 mM) [21]: 218
- FC (+/−CCM) [21]: 1.088
- Mean fluorescense intensities of GFP (24 h), CCM (1.4 mM) [22]: 691
- FC (+/−CCM) [22]: 1.892
- Mean fluorescense intensities of GFP (24 h), CCM (1.4 mM) [23]: 978
- FC (+/−CCM) [23]: 1.761
- Mean fluorescense intensities of GFP (24 h), CCM (1.4 mM) [24]: 1630
- FC (+/−CCM) [24]: 4.004
- Mean fluorescense intensities of GFP (24 h), CCM (1.4 mM) [25]: 199
- FC (+/−CCM) [25]: 1.238
- Mean fluorescense intensities of GFP (24 h), CCM (1.4 mM) [26]: 349
- FC (+/−CCM) [26]: 1.575
- Mean fluorescense intensities of GFP (24 h), CCM (1.4 mM) [27]: 256
- FC (+/−CCM) [27]: 1.571
- Mean fluorescense intensities of GFP (24 h), CCM (1.4 mM) [28]: 1197
- FC (+/−CCM) [28]: 1.898
- Mean fluorescense intensities of GFP (24 h), CCM (1.4 mM) [29]: 527
- FC (+/−CCM) [29]: 1.495
- Mean fluorescense intensities of GFP (24 h), CCM (1.4 mM) [30]: 698
- FC (+/−CCM) [30]: 1.513
- Mean fluorescense intensities of GFP (24 h), CCM (1.4 mM) [31]: 179
- FC (+/−CCM) [31]: 1.072
- Mean fluorescense intensities of GFP (24 h), CCM (1.4 mM) [32]: 2218
- FC (+/−CCM) [32]: 2.64
- Mean fluorescense intensities of GFP (24 h), CCM (1.4 mM) [33]: 2172
- FC (+/−CCM) [33]: 3.25
- Mean fluorescense intensities of GFP (24 h), CCM (1.4 mM) [34]: 2589
- FC (+/−CCM) [34]: 2.005
- Mean fluorescense intensities of GFP (24 h), CCM (1.4 mM) [35]: 258
- FC (+/−CCM) [35]: 1.065
- specificity of GFP induction among diacids tested (wild-type BenM, diacids 1.4 mM, pH 4.5, 24 h): induce GFP expression specifically in response to CCM
